Test system: 653999-131-R-J2-PDC complex spheroids, growth inhibition
Assay: Anticancer human tumor 653999-131-R-J2-PDC patient-derived lung adenocarcinoma cell line growth inhibition [RAS]
Conditions: for IC50: curve of first compound; for viability, T/C: stronger effect = lower value
Text: RAS pathway inhibitors in Combinations in Complex Spheroids
A high-throughput screen of multi-cell type tumor spheroids was designed to identify active combinations of RAS pathway inhibitors and targeted small molecules. Complex spheroids include a stromal component modeled by human endothelial cells (HUVEC) and fibroblasts modeled by human mesenchymal stem cells (MSCs). The concentration ranges selected for each drug and investigational agent were based upon clinically achievable concentrations if the clinical Cmax of the agent was known.
Compounds. The drugs and investigational agents: abemaciclib (NSC768073), cobimetinib (NSC768068), divarasib (GDC6063, NSC841802), docetaxel (NSC628503), GDC-1971 (RLY-1971, NSC841576), gemcitabine (NSC613327), inavolisib (NSC800729), ipatasertib (NSC767898), KB-0742 (NSC834161), MRTX-1133 (NSC836407), osimertinib (NSC779217), RMC-4630 (NSC839698), RMC-6236 (NSC851965), RMC-6291 (NSC852671), Ro-3306 (NSC812927), sapanisertib (NSC764658), SN-38 (NSC673596), staurosporine (NSC755774), SY5609 (NSC837396), and tovorafenib (DAY101, NSC766906), were obtained from the National Cancer Institute (NCI) Developmental Therapeutics Program Chemical Repository. The FDA-approved anticancer drug set is available from the NCI Developmental Therapeutics Program. […] The stock solutions were prepared in dimethyl sulfoxide (DMSO, Sigma-Aldrich, St. Louis, MO, cat. D2650) at 800-fold the tested concentration and stored at -70 degrees C prior to their use. All drugs and investigational agents were tested over a range starting from a high concentration at or near the clinical Cmax and decreasing in half-log increments. If the clinical Cmax for an agent had not been determined, the highest concentration tested was 10 microM.
Cell Culture. All cells were maintained in an incubator at 37 degrees C and 5% CO2 with 95% humidity. The PDC lines were cultured according to standard operating procedures established by the NCI PDMR. All PDCs were thawed and cultured in Matrigel-coated flasks prepared with a working solution of 1X Ham's F-12 nutrient mix, without supplementation (Invitrogen, Waltham, MA, cat. 11765054), 100 U/mL penicillin-streptomycin (Invitrogen, cat. 15140122), and 2.5% Matrigel (Corning Inc., Corning, NY, cat. 354248) for the first three passages. The 362531-283-R-J2-PDC and 782815-120-R-J1-PDC lines were cultured in 6C/Colon 1B media, which includes advanced DMEM/F-12 (Thermo Fisher Scientific, cat. 12634028), 10 mM HEPES (Thermo Fisher Scientific, cat. 15630080), 1X GlutaMAX supplement (Thermo Fisher Scientific, cat. 35050061), 0.1 mg/mL primocin (InvivoGen, San Diego, CA, cat. ant-pm-2), 10% defined fetal bovine serum, heat inactivated (HyClone Laboratories Inc., Logan, UT, cat. SH30070.03HI), 50% L-WRN conditioned media (ATCC, cat. CRL-3276), 1.25 mM N-Acetyl-L-cysteine (Sigma-Aldrich, cat. A9165), 10 mM nicotinamide (Sigma-Aldrich, cat. N0636), 1X B-27 supplement (Thermo Fisher Scientific, cat. 17504044), 1X N-2 supplement (Thermo Fisher Scientific, cat. 17502048), 50 ng/mL human EGF (Thermo Fisher Scientific, cat. PHG0311), and 10 microM Y-27632 dihydrochloride (Tocris Bioscience, cat. 1254). The K12877-001-R-J1-PDC line was cultured in 6I media, which includes all 6C/Colon 1B media plus 10 ng/mL human FGF-10 (PeproTech, cat. 100-26), 1 ng/mL human FGF-2 (PeproTech, cat. 100-18B), 1 µM prostaglandin E2 (Tocris Bioscience, cat. 2296), […] hydrocortisone (Sigma-Aldrich, cat. H4001), and […] bovine insulin (Sigma-Aldrich, cat. I6634). The K86415-001-R-J1-PDC line was cultured in 6D media, which includes all 6C/Colon 1B media components minus the L-WRN conditioned media. The 485176-168-R4-J1-PDC was cultured in PANC media, which includes all 6C/Colon 1B media plus 100 ng/mL human FGF-10 (PeproTech, cat. 100-26), 500 nM SB-431542 (Selleckchem, cat. S1067), and 10 nM gastrin (Tocris Bioscience, cat. 3006). […]

[1] = second compound 0.0316 µM, first compound 0.0316 µM
[2] = second compound 0.0316 µM, first compound 0.1 µM
[3] = second compound 0.0316 µM, first compound 0.316 µM
[4] = second compound 0.0316 µM, first compound 1 µM
[5] = second compound 0.1 µM, first compound 0.0316 µM
[6] = second compound 0.1 µM, first compound 0.1 µM
[7] = second compound 0.1 µM, first compound 0.316 µM
[8] = second compound 0.1 µM, first compound 1 µM
[9] = second compound 0.316 µM, first compound 0.0316 µM
[10] = second compound 0.316 µM, first compound 0.1 µM
[11] = second compound 0.316 µM, first compound 0.316 µM
[12] = second compound 0.316 µM, first compound 1 µM
[13] = second compound 1 µM, first compound 0.0316 µM
[14] = second compound 1 µM, first compound 0.1 µM
[15] = second compound 1 µM, first compound 0.316 µM
[16] = second compound 1 µM, first compound 1 µM
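Note: spheroids exposed to the agents for seven days before the readout.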

C=CC(=O)Nc1cc(Nc2nccc(-c3cn(C)c4ccccc34)n2)c(OC)cc1N(C)CCN(C)C + C#Cc1c(F)ccc2cc(O)cc(-c3ncc4c(N5CC6CCC(C5)N6)nc(OCC56CCCN5CC(F)C6)nc4c3F)c12
IC50 (second compound 0.0316 µM): > 1000 nM | IC50 (second compound 0.1 µM): 613 nM | IC50 (second compound 0.316 µM): 61.7 nM | IC50 (second compound 1 µM): 17.7 nM | IC50 (second compound 3.16 µM): < 3.16 nM | IC50 (second compound 10 µM): < 3.16 nM | viability, T/C (second compound 0.0316 µM, first compound 0.00316 µM): 96.1% | viability, T/C (second compound 0.0316 µM, first compound 0.01 µM): 80.7% | viability, T/C [1]: 82.9% | viability, T/C [2]: 68.3% | viability, T/C [3]: 55.5% | viability, T/C [4]: 63.3% | viability, T/C (second compound 0.1 µM, first compound 0.00316 µM): 89.4% | viability, T/C (second compound 0.1 µM, first compound 0.01 µM): 90.8% | viability, T/C [5]: 57.7% | viability, T/C [6]: 69.9% | viability, T/C [7]: 57.2% | viability, T/C [8]: 44.3% | viability, T/C (second compound 0.316 µM, first compound 0.00316 µM): 77% | viability, T/C (second compound 0.316 µM, first compound 0.01 µM): 95% | viability, T/C [9]: 65.1% | viability, T/C [10]: 37.1% | viability, T/C [11]: 40.9% | viability, T/C [12]: 39.2% | viability, T/C (second compound 1 µM, first compound 0.00316 µM): 60.9% | viability, T/C (second compound 1 µM, first compound 0.01 µM): 53.7% | viability, T/C [13]: 43.2% | viability, T/C [14]: 42.8% | viability, T/C [15]: 36.1% | viability, T/C [16]: 28.1% | viability, T/C (second compound 3.16 µM, first compound 0.00316 µM): 45.6% | viability, T/C (second compound 3.16 µM, first compound 0.01 µM): 35.2% | viability, T/C (second compound 3.16 µM, first compound 0.0316 µM): 38.3% | viability, T/C (second compound 3.16 µM, first compound 0.1 µM): 25.9% | viability, T/C (second compound 3.16 µM, first compound 0.316 µM): 22.8% | viability, T/C (second compound 3.16 µM, first compound 1 µM): 19.6% | viability, T/C (second compound 10 µM, first compound 0.00316 µM): 35.2% | viability, T/C (second compound 10 µM, first compound 0.01 µM): 27.7% | viability, T/C (second compound 10 µM, first compound 0.0316 µM): 26.4% | viability, T/C (second compound 10 µM, first compound 0.1 µM): 15.5% | viability, T/C (second compound 10 µM, first compound 0.316 µM): 15.2% | viability, T/C (second compound 10 µM, first compound 1 µM): 10.5%

CC(Nc1ccc2c(c1)OCCn1cc(N3C(=O)OCC3C(F)F)nc1-2)C(N)=O (centres undefined) + C=CC(=O)N1CCN(c2nc(OCC3CCCN3C)nc3c(F)c(-c4nc(N)cc(C)c4C(F)(F)F)c(Cl)cc23)C(C)C1
IC50 (second compound 0.00316 µM): 645 nM | IC50 (second compound 0.01 µM): 717 nM | IC50 (second compound 0.0316 µM): 636 nM | IC50 (second compound 0.1 µM): 1160 nM | IC50 (second compound 0.316 µM): 536 nM | IC50 (second compound 1 µM): 571 nM | viability, T/C (second compound 0.00316 µM, first compound 0.0316 µM): 111% | viability, T/C (second compound 0.00316 µM, first compound 0.1 µM): 75.6% | viability, T/C (second compound 0.00316 µM, first compound 0.316 µM): 55.9% | viability, T/C (second compound 0.00316 µM, first compound 1 µM): 51.5% | viability, T/C (second compound 0.00316 µM, first compound 3.16 µM): 36.5% | viability, T/C (second compound 0.00316 µM, first compound 10 µM): 25.3% | viability, T/C (second compound 0.01 µM, first compound 0.0316 µM): 104% | viability, T/C (second compound 0.01 µM, first compound 0.1 µM): 83.6% | viability, T/C (second compound 0.01 µM, first compound 0.316 µM): 61.1% | viability, T/C (second compound 0.01 µM, first compound 1 µM): 42.2% | viability, T/C (second compound 0.01 µM, first compound 3.16 µM): 40.4% | viability, T/C (second compound 0.01 µM, first compound 10 µM): 26.5% | viability, T/C [1]: 96.5% | viability, T/C [2]: 70.1% | viability, T/C [3]: 58.9% | viability, T/C [4]: 44.9% | viability, T/C (second compound 0.0316 µM, first compound 3.16 µM): 38.5% | viability, T/C (second compound 0.0316 µM, first compound 10 µM): 26% | viability, T/C [5]: 85.6% | viability, T/C [6]: 66.3% | viability, T/C [7]: 68.8% | viability, T/C [8]: 50.7% | viability, T/C (second compound 0.1 µM, first compound 3.16 µM): 40% | viability, T/C (second compound 0.1 µM, first compound 10 µM): 21.6% | viability, T/C [9]: 85.9% | viability, T/C [10]: 78.1% | viability, T/C [11]: 55.1% | viability, T/C [12]: 40.9% | viability, T/C (second compound 0.316 µM, first compound 3.16 µM): 37.5% | viability, T/C (second compound 0.316 µM, first compound 10 µM): 26.9% | viability, T/C [13]: 87.9% | viability, T/C [14]: 67.6% | viability, T/C [15]: 60.5% | viability, T/C [16]: 37.9% | viability, T/C (second compound 1 µM, first compound 3.16 µM): 41.3% | viability, T/C (second compound 1 µM, first compound 10 µM): 28.7%
